# Legend:
# [1] = molecular target: T1, human β-secretase (sBACE-Fc, soluble part AA 1-AA 460) (Homo sapiens (Human), UniProt P56817); assay: Diluted TR-FRET assay; format: biochemical; settings: 50 times less enzyme, 6.5 h reaction time at r.t. in the dark; read-out: IC50 from the diluted FRET assay
# Method: (§1) The β-secretase enzyme used in the TR-FRET is prepared as follows:
# (§2) The cDNA for the soluble part of the human 13-Secretase (AA 1-AA 460) was cloned using the ASP2-Fc10-1-IRES-GFP-neoK mammalian expression vector. The gene was fused to the Fc domain of IgG1 (affinity tag) and stably cloned into HEK 293 cells.
# […] The robotic systems Biomek FX and Velocity 11 were used for all liquid handling and the enzyme and substrate solutions were kept on ice until they were placed in the robotic system. Enzyme (9 μL) was added to the plate then 1 μL of compound in dimethylsulphoxide was added, mixed and pre-incubated for 10 minutes. […] The reaction was stopped with the addition of Stop solution (7 μL, NaAcetate, pH 9). The fluorescence of the product was measured on a Victor II plate reader with an excitation wavelength of 340 nm and an emission wavelength of 615 nm. The assay was performed in a Costar 384 well round bottom, low volume, non-binding surface plate (Corning #3676). […] The dimethylsulphoxide control, instead of test compound, defined the 100% activity level and 0% activity was defined by wells lacking enzyme (replaced with reaction buffer).
# [2] = test system: sAPPβ release in SH-SY5Y cells; assay: sAPPβ release assay; format: cell-based; settings: Homo sapiens, 17 h incubation
# Method: SH-SY5Y cells were cultured in DMEM/F-12 with Glutamax, 10% FCS and 1% non-essential amino acids and cryopreserved and stored at −140° C. at a concentration of 7.5-9.5×10^6 cells per vial. Thaw cells and seed at a conc. of around 10000 cells/well in DMEM/F-12 with Glutamax, 10% FCS and 1% non-essential amino acids to a 384-well tissue culture treated plate, […] cell susp/well. The cell plates were then incubated for 7-24 h at 37° C., 5% CO2. The cell medium was removed, followed by addition of 30 μL compound diluted in DMEM/F-12 with Glutamax, 10% FCS, 1% non-essential amino acids and 1% PeSt to a final conc. of 1% DMSO. The compounds were incubated with the cells for 17 h (overnight) at 37° C., 5% CO2. Meso Scale Discovery (MSD) plates were used for the detection of sAPPβ release. MSD sAPPβ plates were blocked in 1% BSA in Tris wash buffer (40 μL/well) for 1 h on shake at r.t. and washed 1 time in Tris wash buffer (40 μL/well). 20 μL of medium was transferred to the pre-blocked and washed MSD sAPPβ microplates, and the cell plates were further used in an ATP assay to measure cytotoxicity. The MSD plates were incubated with shaking at r.t. for 2 h and the media discarded. 10 μL detection antibody was added (1 nM) per well followed by incubation with shaking at r.t. for 2 h and then discarded. 40 μL Read Buffer was added per well and the plates were read in a SECTOR Imager.
# [3] = molecular target: T1, human β-secretase (sBACE-Fc, soluble part AA 1-AA 460); assay: TR-FRET assay; format: biochemical; settings: TruPoint BACE1 substrate 100 nM, pH 4.5, 15 min at r.t.
# Method: as §1, §2
# The enzyme (truncated form) was diluted to 6 μg/mL (stock 1.3 mg/mL) and the TruPoint BACE1 Substrate to 200 nM (stock 120 μM) in reaction buffer (NaAcetate, chaps, triton x-100, EDTA pH4.5). The robotic systems Biomek FX and Velocity 11 were used for all liquid handling and the enzyme and substrate solutions were kept on ice until they were placed in the robotic system. Enzyme (9 μL) was added to the plate then 1 μL of compound in dimethylsulphoxide was added, mixed and pre-incubated for 10 minutes. Substrate (10 μL) was then added, mixed and the reaction proceeded for 15 minutes at r.t. The reaction was stopped with the addition of Stop solution (7 μL, NaAcetate, pH 9). The fluorescence of the product was measured on a Victor II plate reader with an excitation wavelength of 340 nm and an emission wavelength of 615 nm. The assay was performed in a Costar 384 well round bottom, low volume, non-binding surface plate (Corning #3676). […] The dimethylsulphoxide control, instead of test compound, defined the 100% activity level and 0% activity was defined by wells lacking enzyme (replaced with reaction buffer).
# T1 sequence (P56817 22-460): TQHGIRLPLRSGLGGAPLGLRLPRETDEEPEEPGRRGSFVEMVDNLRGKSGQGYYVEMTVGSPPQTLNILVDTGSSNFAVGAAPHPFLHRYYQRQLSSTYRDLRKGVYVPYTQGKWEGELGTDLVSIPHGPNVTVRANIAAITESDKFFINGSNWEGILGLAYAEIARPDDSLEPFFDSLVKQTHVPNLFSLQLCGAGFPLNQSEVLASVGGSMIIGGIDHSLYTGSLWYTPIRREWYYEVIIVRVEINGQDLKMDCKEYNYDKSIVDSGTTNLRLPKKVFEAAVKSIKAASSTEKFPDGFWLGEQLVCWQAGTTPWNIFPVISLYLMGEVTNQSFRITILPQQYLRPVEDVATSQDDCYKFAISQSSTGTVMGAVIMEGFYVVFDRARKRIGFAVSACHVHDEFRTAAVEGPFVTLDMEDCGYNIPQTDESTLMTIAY
SMILES,IC50 [1],IC50 [2],IC50 [3]
"CO[C@H]1CC[C@]2(CC1)Cc1ccc(-c3cncnc3)cc1C21C=C(F)C(N)=N1 (stereo partly drawn) [Example 1, (1r,4r)-4″-fluoro-4-methoxy-6′-(pyrimidin-5-yl)-3′H-dispiro[cyclohexane-1,2′-indene-1,2″-pyrrol]-5″amine]",22 nM,1.1 nM,–
"CC1(C)COc2ccc(-c3cncc(F)c3)cc2C12C=C(F)C(N)=N2 (stereo not drawn) [Example 7, 4′-Fluoro-6-(5-fluoropyridin-3-yl)-3,3-dimethylspiro[chroman-4,2′-pyrrol]-5′-amine]",–,30 nM,770 nM
"CC#Cc1cncc(-c2ccc3c(c2)C2(C=C(F)C(N)=N2)[C@]2(CC[C@@H](OC)CC2)C3)c1 (stereo partly drawn) [Example 4, (1s,4s)-4″-Fluoro-4-methoxy-6′-[5-(prop-1-yn-1-yl)pyridin-3-yl]-3′H-dispiro[cyclohexane-1,2′-indene-1′,2″-pyrrol]-5″amine]",–,1.1 nM,258 nM
"CO[C@H]1CC[C@@]2(CC1)Cc1ccc(-c3cncnc3)cc1C21C=C(F)C(N)=N1 (stereo partly drawn) [Example 2, (1s,4s)-4″-Fluoro-4-methoxy-6′-(pyrimidin-5-yl)-3′H-dispiro[cyclohexane-1,2′-indene-1,2″-pyrrol]-5″amine]",–,56 nM,1970 nM
"CC1(C)COc2ccc(-c3cncnc3)cc2C12C=C(F)C(N)=N2 (stereo not drawn) [Example 6, 4′-Fluoro-3,3-dimethyl-6-(pyrimidin-5-yl)spiro[chroman-4,2′-pyrrol]-5′-amine]",–,19 nM,770 nM
"CC#Cc1cncc(-c2ccc3c(c2)C2(C=C(F)C(N)=N2)[C@]2(CC[C@H](OC)CC2)C3)c1 (stereo partly drawn) [Example 3, (1r,4r)-4″-Fluoro-4-methoxy-6′-[5-(prop-1-yn-1-yl)pyridin-3-yl]-3′H-dispiro[cyclohexane-1,2′-indene-1′,2″-pyrrol]-5″amine]",–,0.031 nM,18 nM
"CO[C@H]1CC[C@]2(CC1)Oc1ccc(-c3cc(F)cc(C#N)c3)cc1C21C=C(F)C(N)=N1 (stereo partly drawn) [Example 5, 3-[(1s,4s)-5″-Amino-4″-fluoro-4-methoxydispiro[cyclohexane-1,2′-[1]benzofuran-3′,2″-pyrrol]-5′-yl]-5-fluorobenzonitrile]",–,3 nM,71 nM
"CC1(C)COc2ccc(-c3cc(F)cc(F)c3)cc2C12C=C(F)C(N)=N2 (stereo not drawn) [Example 8, 6-(3,5-Difluorophenyl)-4′-fluoro-3,3-dimethylspiro[chroman-4,2′-pyrrol]-5′-amine]",–,256 nM,640 nM
"CC1(C)Cc2ccc(-c3cncnc3)cc2C12C=C(F)C(N)=N2 (stereo not drawn) [Example 9, 4′-fluoro-2,2-dimethyl-6-(pyrimidin-5-yl)-2,3-dihydrospiro[indene-1,2′-pyrrol]-5′-amine]",–,168 nM,3790 nM

# Reference: patent publication US9650336B2, “Mono-fluoro beta-secretase inhibitors” (ASTRAZENECA AB, priority 2011, dated 2017)
